Measurements taken from ChEMBL document CHEMBL1133405, “Design and synthesis of functionalized glycomers as non-peptidic ligands for SH2 binding and as inhibitors of A-431 human epidermoid and HT-29 colon carcinoma cell lines” (Bioorg Med Chem Lett, 2000).

What was measured:
HT-29 = test: Cytotoxicity of compound was measured for the growth inhibition of HT-29 human colon carcinoma cell line; assay type: functional, cell-based
A-431 = test: Cytotoxicity measured for the growth inhibition of A-431 Human epidermoid carcinoma cell line; assay type: functional, cell-based
[1] = target: Growth factor receptor-bound protein 2 (Homo sapiens) (UniProt P62993); test: Compound was evaluated for the inhibitory activity against Growth factor receptor bound protein 2 SH2 at a concentration of 100 uM
Chain of Growth factor receptor-bound protein 2 (Homo sapiens) (P62993 whole entry, looked up): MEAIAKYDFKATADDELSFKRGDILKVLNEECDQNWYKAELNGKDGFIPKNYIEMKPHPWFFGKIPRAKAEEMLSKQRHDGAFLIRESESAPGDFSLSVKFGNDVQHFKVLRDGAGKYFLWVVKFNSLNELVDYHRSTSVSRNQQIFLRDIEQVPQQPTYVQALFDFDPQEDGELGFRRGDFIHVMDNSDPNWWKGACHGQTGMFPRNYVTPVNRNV

Row | Compound | IC50 (HT-29) | IC50 (A-431) | inhibition [1]
1 | C=CCO[C@@H]1[C@H](O)[C@H](Oc2ccc(I)cc2)O[C@@H](COCc2ccc(OC)cc2)[C@H]1O | 19.7 µM | 10.6 µM | –
2 | C=CCO[C@@H]1[C@H](O)[C@H](Oc2ccc(I)cc2)O[C@@H](COC(=O)c2ccc(OC)cc2)[C@H]1O | 55.1 µM | 24.6 µM | –
3 | C=CCO[C@H]1[C@@H](O)[C@H](COS(=O)(=O)c2cccc(C(F)(F)F)c2)O[C@@H](Oc2ccc(I)cc2)[C@H]1OC(=O)C(C)C | 4.2 µM | 3.3 µM | 30%
4 | CCCO[C@H]1[C@H](O)[C@H](COS(=O)(=O)c2ccc3ccccc3c2)O[C@@H](Oc2ccc(OP(=O)(O)O)cc2)[C@H]1OC(C)=O [GLYCOMER] | > 50 µM | > 50 µM | –
5 | C=CCO[C@H]1[C@H](O)[C@H](COS(=O)(=O)c2ccc3ccccc3c2)O[C@@H](Oc2ccc(I)cc2)[C@H]1OC(C)=O | 11.6 µM | 5.2 µM | –
6 | O=C(Nc1ccccc1)OCCO[C@@H]1[C@H](O)[C@H](Oc2ccc(I)cc2)O[C@@H](COS(=O)(=O)c2ccc3ccccc3c2)[C@H]1O | 3.67 µM | 5.1 µM | –
7 | C=CCO[C@H]1[C@H](O)[C@H](COS(=O)(=O)c2cccc(C(F)(F)F)c2)O[C@@H](Oc2ccc(I)cc2)[C@H]1OC(=O)CCc1ccccc1 | 3 µM | 2 µM | –
8 | C=CCO[C@H]1[C@H](O)[C@H](COS(=O)(=O)c2cccc(C(F)(F)F)c2)O[C@H](Oc2ccc(I)cc2)[C@@H]1OC(=O)CCC | 4 µM | 2.6 µM | –
9 | C=CCO[C@H]1[C@H](O)[C@H](COS(=O)(=O)c2cccc(C(F)(F)F)c2)O[C@@H](Oc2ccc(I)cc2)[C@H]1OC(=O)Cc1ccccc1 | 4.95 µM | 5.15 µM | –
10 | C=CCO[C@@H]1[C@H](O)[C@H](Oc2ccc(I)cc2)O[C@@H](COS(=O)(=O)c2cccc(C(F)(F)F)c2)[C@H]1O | 35.5 µM | 36.8 µM | –
11 | C=CCO[C@@H]1[C@H](O)[C@H](Oc2ccc(I)cc2)O[C@@H](COC(=O)c2ccccc2)[C@H]1O | > 50 µM | > 50 µM | –
12 | O=C(CCc1ccccc1)O[C@@H]1[C@H](Oc2ccc(I)cc2)O[C@@H](COS(=O)(=O)c2cccc(C(F)(F)F)c2)[C@@H](O)[C@@H]1OCCOC(=O)Nc1ccccc1 | 7.15 µM | 4.52 µM | 30%
13 | C=CCO[C@H]1[C@H](O)[C@H](COS(=O)(=O)c2cccc(C(F)(F)F)c2)O[C@@H](Oc2ccc(I)cc2)[C@H]1OC(=O)CC | 4.65 µM | 2.17 µM | –
14 | C=CCO[C@H]1[C@H](O)[C@H](COS(=O)(=O)c2cccc(C(F)(F)F)c2)O[C@@H](Oc2ccc(I)cc2)[C@H]1OC(=O)c1ccccc1 | 7.5 µM | 7 µM | –
15 | C=CCO[C@@H]1[C@H](O)[C@H](Oc2ccc(I)cc2)O[C@@H](COC(=O)c2ccc(Cl)cc2)[C@H]1O | 25.2 µM | 20.5 µM | –
16 | C=CCO[C@@H]1[C@H](O)[C@H](Oc2ccc(I)cc2)O[C@@H](COC(=O)c2ccc3ccccc3c2)[C@H]1O | > 50 µM | > 50 µM | –
17 | C=CCO[C@H]1[C@H](O)[C@H](COS(=O)(=O)c2cccc(C(F)(F)F)c2)O[C@@H](Oc2ccc(I)cc2)[C@H]1OC(C)=O | 23.1 µM | 6.1 µM | –
18 | C=CCO[C@H]1[C@H](O)[C@H](COS(=O)(=O)c2ccc(Cl)cc2)O[C@@H](Oc2ccc(I)cc2)[C@H]1OC(C)=O | – | 9.77 µM | –
19 | C=CCO[C@@H]1[C@H](O)[C@H](Oc2ccc(I)cc2)O[C@@H](COS(=O)(=O)c2ccc3ccccc3c2)[C@H]1O | – | 8.81 µM | –
20 | NC(=O)OCCO[C@@H]1[C@H](O)[C@H](Oc2ccc(I)cc2)O[C@@H](COS(=O)(=O)c2ccc3ccccc3c2)[C@H]1O | 23.1 µM | 9.1 µM | –
21 | C=CCO[C@H]1[C@H](O)[C@H](COS(=O)(=O)c2cccs2)O[C@@H](Oc2ccc(I)cc2)[C@H]1OC(C)=O | – | 12.8 µM | 30%
22 | CCCO[C@H]1[C@H](O)[C@H](COS(=O)(=O)c2cccc(C(F)(F)F)c2)O[C@@H](Oc2ccc(OP(=O)(O)O)cc2)[C@H]1OC(C)=O [GLYCOMER] | 35.5 µM | 38.8 µM | –
